Columns and labels:
Assay type in all cases: in vivo, rat
CPIP rats [1] = test: Mechanical allodynia (von Frey paw withdrawal threshold) after topical ointment in CPIP rats (model of CRPS-I); conditions: for effectiveness of the agent when administered topically in the combinations: apraclonidine 0.005%, clonidine 0.0075%, lisofylline 0.0078%-0.075%, pentoxifylline 0.3 or 0.6%, linsidomine 0.4%; for anti-allodynic effect (PWT to von Frey hair stimulation): single drug
Experimental: Ointment type analgesic formulations containing the above-mentioned drugs were prepared according to standard pharmaceutical procedures. The ointments were formulated using a composite, water-soluble polyethylene glycol base system employing carbowax (PEG 3350) and PEG 400 in the ratio of 60:40 respectively. The water-soluble base system was selected due to its non-sticky nature. Briefly, the required amounts of the active ingredients were first weighed out and then added to the already molten base in decreasing order of their melting points, and stirred well. After uniform melting, the formulation was brought to room temperature to ensure proper solidification. A standard amount of 150 mg (mean±SEM=150.88+2.7 mg) of the ointment was used for all rat hind paw applications throughout the experimental procedure, and half this amount for mouse hind paw application.
(§1) Chronic post-ischemia pain (CPIP) was generated following exposure to prolonged hind paw ischemia and reperfusion (Coderre et al., Pain, 112(1):94-105, 2004). Briefly, rats were anesthetized over a 3 h period with a bolus (55 mg/kg, i.p.) followed by chronic i.p. infusion of sodium pentobarbital for 2 h at a rate of 0.15 mL/h. After induction of anesthesia, a Nitrile 70 Durometer O-ring (O-rings West, Seattle, Wash.) with 5.5 mm internal diameter was placed around the rat's left hind limb proximal to the ankle joint. The tight-fitting O-rings produce a complete blockade of arterial blood flow as measured using laser Doppler flowmetry. The ring was then left in place for 3 h. The termination of sodium pentobarbital anesthesia was timed so that the rats recovered fully within 30-60 min following reperfusion. Rats were tested between 2 and 14 days post-IR injury.
(§2) The plantar surface of the ipsilateral hind paw was tested for mechanical allodynia in CPIP and CCI rats. Nylon monofilaments were applied in either ascending (after negative response) or descending (after positive response) force as necessary to determine the filament closest to the threshold of response. Each filament was applied for 10 s or until a flexion reflex occurred. The minimum stimulus intensity was 1 g and the maximum was 15 g. Based on the response pattern, and the force of the final filament (5th stimulus after first direction change), the 50% threshold (grams) was calculated as (10[Xf+kδ])/10000 where Xf=filament number of the final von Frey hair used, k=value for the pattern of positive/negative responses and δ=mean difference in log unit between stimuli (here, δ=0.220, for more details see Chaplan et al., J. Neurosci. Methods, 53(1):55-63, 1994). Mechanical sensitivities were assessed prior to and following several pharmacological treatments.
The topical formulations containing a nitric oxide donor, an α2-adrenergic agonist or a phosphatidic acid inhibitor were tested for their anti-allodynic effects either singly or in combination with each other in definite proportions at concentrations for single agents selected from the published literature in different animal models of pain. Accordingly, the rats received 150 mg of the respective ointment with the first half on the plantar aspect of their hind paws followed by the second half applied on the dorsal surface; in both cases by uniform gentle application using fingers.
In separate groups of rats, formulations containing pentoxifylline or lisofylline were tested in specific drug combinations with constant percentage amounts of clonidine, linsidomine, SNAP or apraclonidine. […] Accordingly, the formulations tested in the combination trials included clonidine (0.0075% W/W) with pentoxifylline (0.3, 0.6 and 1.2% WAN), linsidomine (0.4% W/W) with pentoxifylline (0.075, 0.15 and 0.3% W/W), linsidomine (0.4% W/W) with lisofylline (0.03175, 0.0625 and 0.075% W/W), SNAP (0.0625% W/W) with lisofylline (0.008, 0.015, 0.033 and 0.063% W/W) and apraclonidine (0.005% W/W) with lisofylline (0.0078, 0.0156 and 0.0313% W/W). […]

sham rats = test: Laser Doppler post-occlusive reactive hyperemia in sham rats, systemic pentoxifylline; conditions: 25 mg/kg i.p.
Experimental: Plantar blood flow and post-occlusive reactive hyperemia were measured using a laser Doppler perfusion and temperature monitor (DRT4, Moor Instruments, Wilmington, Del.) to assess microvascular function (Morales et al., Microvasc. Res., 69(1-2):17-23, 2005). Briefly, rats (n=6 for each group) were anesthetized with bolus (1 g/kg) and maintenance doses (200 mg/kg prn) of urethane, and placed in the prone position. Body temperature was monitored through a rectal thermometer coupled to a heating pad (FHC, Bowdoinham, Me.), and was maintained between 37.5° C. and 39.0° C. throughout the experiment. The plantar blood flow of the ipsilateral hind paw was monitored using a laser-emitting probe placed in between the tori pads of the hind paw, along the midline. […] At the rate of one sample per second, an initial 10 minute baseline blood flux was recorded, followed by a 2 minute occlusion induced by pressurizing and inflating a tight fitting loop of Tygon® R 3603 tubing (outside diameter=2.38 mm, inside diameter=0.79 mm, wall thickness=0.79 mm) connected to an air-filled pump-driven 60 mL syringe (Model 11, Harvard Apparatus, Montreal, QC), creating a tourniquet around the ankle joint. […] Post-occlusive reactive hyperemia was monitored by continuously sampling flux at the rate of 1/sec for 2 min following the onset of reperfusion. […]

CPIP rats [2] = test: Mechanical allodynia (von Frey PWT) in CPIP rats after systemic pentoxifylline; conditions: vs vehicle
Experimental: as §1, with “The termination of sodium pentobarbital anesthesia was timed so that the rats recovered fully within 30-60 min following reperfusion. Rats were tested between 2 and 14 days post-IR injury.” left out
as §2, with “Nylon monofilaments were applied in either ascending (after negative response) or descending (after positive response) force as necessary to determine the filament closest to the threshold of response. Each filament was applied for 10 s or until a flexion reflex occurred. The minimum stimulus intensity was 1 g and the maximum was 15 g.” left out

CPIP rats [3] = test: Laser Doppler post-occlusive reactive hyperemia in CPIP rats, systemic pentoxifylline; conditions: 25 mg/kg i.p.
Experimental: as §1, with “The termination of sodium pentobarbital anesthesia was timed so that the rats recovered fully within 30-60 min following reperfusion. Rats were tested between 2 and 14 days post-IR injury.” left out
Plantar blood flow and post-occlusive reactive hyperemia were measured using a laser Doppler perfusion and temperature monitor (DRT4, Moor Instruments, Wilmington, Del.) to assess microvascular function (Morales et al., Microvasc. Res., 69(1-2):17-23, 2005). […] Body temperature was monitored through a rectal thermometer coupled to a heating pad (FHC, Bowdoinham, Me.), and was maintained between 37.5° C. and 39.0° C. throughout the experiment. The plantar blood flow of the ipsilateral hind paw was monitored using a laser-emitting probe placed in between the tori pads of the hind paw, along the midline. […]

**Q.** For `Nc1cc(Cl)c(N=C2NCCN2)c(Cl)c1` [apraclonidine], which “effectiveness of the agent when administered topically in the combinations” value (“effectiveness of the agent” below) (CPIP rats [1]) is on record?
**A.** The value was “highly effective”.

**Q.** What about the “anti-allodynic effect (PWT to von Frey hair stimulation)” value (from here on “anti-allodynic effect”) (CPIP rats [1]; topical ipsilateral, 0.005% W/W (lowest)) of the same molecule?
**A.** The value was “inactive”.

**Q.** And the “anti-allodynic effect” value (CPIP rats [1]; topical ipsilateral, all concentrations except the lowest (0.01, 0.02 and 0.04% W/W))?
**A.** The value was “effective against mechanical allodynia”.

**Q.** Which results are given for `CC(=O)CCCCn1c(=O)c2c(ncn2C)n(C)c1=O` [pentoxifylline]?
**A.** effect on normal post-occlusive reactive hyperemia (sham rats): no effect; effectiveness of the agent when administered topically in the combinations (CPIP rats [1]): highly effective; anti-allodynic effect (PWT to von Frey hair stimulation) (CPIP rats [1]; topical ipsilateral hind paw, 5% W/W, 45 min post-application): significantly attenuated mechanical allodynia; anti-allodynic effect (PWT to von Frey hair stimulation) (CPIP rats [1]; topical ipsilateral, 0.6% W/W): devoid of any effect; anti-allodynic effect (PWT to von Frey hair stimulation) (CPIP rats [1]; topical ipsilateral, 1.2% W/W): devoid of any effect; allodynia (PWT to von Frey hair stimulation) (CPIP rats [2]; 25 mg/kg): attenuated allodynia; allodynia (PWT to von Frey hair stimulation) (CPIP rats [2]; 50 mg/kg): attenuated allodynia; effect on delayed post-occlusive reactive hyperemia (microvascular dysfunction) (CPIP rats [3]): reversed

**Q.** What does the source list for `Clc1cccc(Cl)c1N=C1NCCN1` [clonidine]?
**A.** effectiveness of the agent when administered topically in the combinations (CPIP rats [1]): highly effective; anti-allodynic effect (PWT to von Frey hair stimulation) (CPIP rats [1]; topical ipsilateral, 0.0075% W/W): inactive; anti-allodynic effect (PWT to von Frey hair stimulation) (CPIP rats [1]; topical ipsilateral, 0.03% W/W): significant anti-allodynic effects; anti-allodynic effect (PWT to von Frey hair stimulation) (CPIP rats [1]; topical ipsilateral, 0.06% W/W): significant anti-allodynic effects

**Q.** Which results are given for `CC(=O)N[C@H](C(=O)O)C(C)(C)SN=O` [SNAP, S-nitroso-N-acetyl-penicillamine]?
**A.** anti-allodynic effect (PWT to von Frey hair stimulation) (CPIP rats [1]; topical ipsilateral, 0.0625% W/W (lowest)): inactive; anti-allodynic effect (PWT to von Frey hair stimulation) (CPIP rats [1]; topical ipsilateral, all concentrations except the lowest (0.125, 0.25 and 0.5% W/W)): significant effects

**Q.** With `[NH-]c1c[n+](N2CCOCC2)no1` [linsidomine] as the molecule, how does the “effectiveness of the agent” value (CPIP rats [1]) read?
**A.** Its value is “highly effective”.

**Q.** What about the “anti-allodynic effect” value (CPIP rats [1]; topical ipsilateral, 0.4% W/W) of the same molecule?
**A.** Its value is “inactive”.

**Q.** And the “anti-allodynic effect” value (CPIP rats [1]; topical ipsilateral, 0.8% W/W, post drug vs pre-drug)?
**A.** Its value is “significantly different from their pre-drug values”.

**Q.** And the “anti-allodynic effect” value (CPIP rats [1]; topical ipsilateral, 1.6% W/W, post drug vs pre-drug)?
**A.** Its value is “significantly different from their pre-drug values”.

**Q.** With `C[C@@H](O)CCCCn1c(=O)c2c(ncn2C)n(C)c1=O` [lisofylline] as the molecule, how does the “effectiveness of the agent” value (CPIP rats [1]) read?
**A.** The value was “highly effective”.

**Q.** What about the “anti-allodynic effect” value (CPIP rats [1]; topical ipsilateral, lowest concentration 0.063% W/W) of the same molecule?
**A.** Its value is “inactive”.

**Q.** What about the “anti-allodynic effect” value (CPIP rats [1]; topical ipsilateral, the three higher concentrations (0.09, 0.125 and 0.25% W/W)) of the same molecule?
**A.** Its value is “only the lowest concentration (0.063% W/W) was observed to be inactive”.

Reference: US20130029989A1, “TOPICAL TREATMENTS FOR PAIN” (The Royal Institution for the Advancement of …, priority 2010, published 2013)
